Patent US8309768B2, “FTY720-derived anticancer agents” (The Ohio State University Research Foundation, priority 2010, dated 2012)

How the values were obtained:
human recombinant SphK2 = biological target: T1, human recombinant SphK2 (Homo sapiens, UniProt Q9NRA0); assay: Phosphorylation of FTY720 and OSU-2S by SphK2 (radiometric, TLC); assay type: biochemical; settings: 5 μM compound, [γ-32P]-ATP, 37° C., 60 min, TLC/autoradiography
T1 construct: purchased Cayman
T1 sequence (Q9NRA0 1-654): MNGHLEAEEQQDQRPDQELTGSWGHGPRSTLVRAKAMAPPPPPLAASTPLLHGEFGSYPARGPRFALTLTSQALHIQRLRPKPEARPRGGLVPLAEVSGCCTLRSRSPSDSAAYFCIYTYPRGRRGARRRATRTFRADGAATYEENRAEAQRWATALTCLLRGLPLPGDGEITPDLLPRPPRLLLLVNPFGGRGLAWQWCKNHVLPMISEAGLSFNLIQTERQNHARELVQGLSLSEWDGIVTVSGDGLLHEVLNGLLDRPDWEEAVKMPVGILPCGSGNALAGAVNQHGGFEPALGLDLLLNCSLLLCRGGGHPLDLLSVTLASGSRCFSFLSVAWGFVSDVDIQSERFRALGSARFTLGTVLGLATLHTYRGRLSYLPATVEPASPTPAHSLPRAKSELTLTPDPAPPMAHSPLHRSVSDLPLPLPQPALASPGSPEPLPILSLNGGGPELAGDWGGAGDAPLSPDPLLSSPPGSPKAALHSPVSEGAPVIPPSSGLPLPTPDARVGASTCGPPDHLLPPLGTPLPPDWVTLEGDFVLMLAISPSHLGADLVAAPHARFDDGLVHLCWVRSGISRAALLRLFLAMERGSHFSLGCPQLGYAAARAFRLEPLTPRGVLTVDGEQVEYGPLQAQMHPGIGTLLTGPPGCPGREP
Description: Phosphorylation of FTY720 and OSU-2S by SphK2. Analysis of SphK2-mediated phosphorylation was performed as reported with modifications. Prieschl […] J Exp Med, 190, 1-8 (1999). Briefly, 5 μM FTY720 or OSU-2S was incubated with 0.75 μg/ml human recombinant SphK2 (Cayman), 5 μCi [γ-^32P]-ATP, and 0.5 mM cold ATP at 37° C. for 60 min. The reaction products were separated by silica-gel thin layer chromatography (TLC) and visualized by autoradiography.

Huh7 cells = assay: MTT cell viability assay, Huh7; assay type: cell-based; settings: Homo sapiens, Huh-7, 24 h of treatment, MTT
Description: (§1) Cell lines, culture and reagents. The HCC cell lines Hep3B, PLC5 and Huh7, as well as primary nonmalignant human hepatocytes were used in this study. Cancer cells were cultured in Dulbecco's Modified Eagle's medium (DMEM) supplemented with 10% fetal bovine serum (FBS). Hepatocytes were maintained in defined Hepatocyte Culture Medium. […] Various polyclonal and monoclonal antibodies were used for western blotting, immunocytochemical, and flow cytometric analyses.
(§2) Cell viability assay. Cell viability was assessed by 3-(4,5-dimethylthiazol-2-yl)-2,5-diphenyl-2H-tetrazolium bromide (MTT) assays in six replicates. Cells were seeded (4,000 cells/well; 96-well plate) for 24 h and treated with test agents in 5% FBS-supplemented DMEM. After treatment, cells were incubated in medium containing 0.5 mg/ml MTT (37° C., 2 h). Reduced MTT was dissolved in DMSO (200 μL/well) and absorbances measured at 570 nm.

Hep3B cells = assay: MTT cell viability assay, Hep3B; assay type: cell-based; settings: Homo sapiens, 24 h of treatment
Description: as §1, §2

normal human hepatocytes = assay: MTT cell viability assay, normal hepatocytes; assay type: cell-based; settings: 24 h
Description: as §1, §2

[1] = biological target: T2, S1P1 receptor-overexpressing Huh7 cells (Homo sapiens, UniProt P21453); assay: Cell viability in stable S1P1 receptor transfectants; assay type: cell-based; settings: two stable S1P1 clones vs wild-type Huh7
T2 construct: expressed in transfected cells
T2 sequence (P21453 whole entry): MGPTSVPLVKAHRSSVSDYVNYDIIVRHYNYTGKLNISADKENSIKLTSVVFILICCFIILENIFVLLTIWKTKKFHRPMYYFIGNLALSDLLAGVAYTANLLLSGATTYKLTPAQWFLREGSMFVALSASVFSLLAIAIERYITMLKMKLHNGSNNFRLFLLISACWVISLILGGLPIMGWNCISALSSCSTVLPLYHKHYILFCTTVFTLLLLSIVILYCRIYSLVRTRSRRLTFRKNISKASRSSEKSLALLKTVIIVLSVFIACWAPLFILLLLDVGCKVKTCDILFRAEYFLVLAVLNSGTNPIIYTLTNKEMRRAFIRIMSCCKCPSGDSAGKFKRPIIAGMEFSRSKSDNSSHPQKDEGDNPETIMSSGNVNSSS
Description: as §2
Overexpression of S1P1 Receptors. Huh7 or Hep3B cells were transfected with plasmids encoding S1PR1, Flag-tagged GST-π or hemagglutinin (HA)-tagged, CA-Akt. The corresponding empty vectors were used as controls. Stable clones were selected over 3 weeks by geneticin, and the expression of cloned proteins was confirmed by Western blotting.

[2] = test system: PTEN, p53, Mcl-1 in Huh7 cells; assay: Western blot of signaling markers in drug-treated Huh7 cells; assay type: cell-based; settings: 24 h
Description: Immunoblotting. Immunoblotting of biomarkers in cell lysates and tumor tissue homogenates was carried out according to a published procedure. Hung et al., Cancer Res., 68, 1204-1212 (2008).

[3] = test system: subcutaneous Hep3B tumors; assay: Ectopic (subcutaneous) Hep3B xenograft tumor model; assay type: in vivo, athymic nude mice
Description: (§3) Xenograft tumor models. Ectopic tumors were established in athymic nude mice by subcutaneous injection of 1×10^6 Hep3B cells in a total volume of 0.1 ml of serum-free medium containing 50% Matrigel. Mice with established tumors were randomized to five groups (n=8) that received daily i.p. injections of OSU-2S or FTY720 at 5 or 10 mg/kg, or the vehicle. Tumor burdens were determined weekly using calipers (volume=width^2×length×0.52). Body weights were measured weekly. At the study endpoint, tumors were harvested, snap-frozen and stored at −80° C. for biomarker analysis. Blood and tissues were collected for evaluation of complete blood counts, serum chemistry and histopathology.

[4] = Toxicity evaluation in tumor-bearing mice (body weight, blood counts, histopathology); assay type: in vivo, athymic nude mice; settings: for mice with abdominal adhesions with varying amounts of peritonitis: of six mice per group examined histologically
Description: as §3
Orthotopic tumors were established by direct intrahepatic injection of luciferase-expressing Hep3B (Hep3B-luc) cells as described. Omar et al., Mol Pharmacol, 76, 957-968 (2009). The establishment and growth of tumors were monitored by bioluminescent imaging using the IVIS™ imaging system (Xenogen, Alameda, Calif.). Two weeks after tumor cell injection, animals with established tumors were randomized to three groups (n=3) that received daily i.p. injections of FTY720 or OSU-2S at 5 mg/kg, or vehicle for 42 days and were imaged weekly. All animal use described in this manuscript was done in accordance with protocols approved by The Ohio State University Institutional Animal Care and Use Committee.

CCC[C@@](N)(CO)CCc1ccc(OCCCCCC(C)C)cc1 [OSU-2S, (S)-2-amino-2-(4-[(6-methylheptyl)-oxy]phenethyl)pentan-1-ol]
phosphorylation by recombinant SphK2 (human recombinant SphK2): not phosphorylated | IC50 (Huh7 cells): 2400 nM | IC50 (Hep3B cells): 2400 nM | sensitivity of normal human hepatocytes relative to malignant cells (normal human hepatocytes): resistant | effect of S1P1 receptor overexpression on antiproliferative activity [1]: no protective effect | effect on expression levels of PTEN, p53, or Mcl-1 [2]: neither OSU-2S nor FTY720 had an appreciable effect | ectopic Hep3B tumor growth vs vehicle control ([3]; 5 mg/kg, i.p. once daily, P<0.001): completely suppressed | reduction of tumor volume ([3]; 10 mg/kg i.p. daily, end of 42-day treatment): more than 50% | intratumoral biomarkers of drug activity ([3]; Hep3B tumor tissue homogenates, Western blot): PKCδ and caspase-3 were activated | mice with abdominal adhesions with varying amounts of peritonitis ([4]; 5 mg/kg): all | mice with abdominal adhesions with varying amounts of peritonitis ([4]; 10 mg/kg): all | lymphocyte levels ([4]; ectopic tumor-bearing mice at study endpoint): normal | overt toxicity and body weight ([4]; ectopic tumor-bearing mice, daily i.p. 5 or 10 mg/kg): no overt signs of toxicity and no loss of body weight | total lymphocyte counts ([4]; mice after 42 days of treatment): no decrease | tolerability (stable body weights) ([4]; orthotopic tumor-bearing mice, daily i.p., 42 days): well tolerated
